Results as given in patent US20160194358A1, “LINEAR PEPTIDE ANTIBIOTCS” (priority 2013, published 2016).
Values after ≈ are worked out from the molar mass of the structure shown. Read-outs that look alike come from different tables or passages of the source. *1 amine or outer side, *2 acyl side, *3 side chain or, on linkers, in order; H or OH if unused. Where a SMILES comes first, the peptide text is derived from it. [ ]: non-standard residue; d: D form. The star is where a group is joined. boroAla((+)-pinanediol) = C[C@H](N*)B1O[C@@H]2C[C@@H]3C[C@@H](C3(C)C)[C@]2(C)O1; Benzenesulfonyl(4-Ph) = O=S(=O)(c1ccc(-c2ccccc2)cc1)*; Benzoyl(4-(4-Cl-Ph)) = O=C(c1ccc(-c2ccc(Cl)cc2)cc1)*; Ethanesulfonyl(2-NHDecyl) = CCCCCCCCCCNCCS(=O)(=O)*; Propanoyl(3-decylamino) = CCCCCCCCCCNCCC(=O)*; X18 = CCCCc1ccc(-c2ccc(S(=O)(=O)*)cn2)cc1; X21 = O=S(=O)(c1ccc(-c2ccc(Cl)cc2)nc1)*; X32 = CCCCCCN1CCN([*:1])C(C(=O)[*:2])C1; X30 = CCCCc1ccc(-c2ncc(C(=O)*)cn2)cc1; X33 = CC(C)(O)C#CC#Cc1ccc(C(=O)*)cc1; AlaCOCOOMe = COC(=O)C(=O)[C@H](C)N*; X35 = O=C(c1cnc(-c2ccc(Cl)cc2)nc1)*; X36 = CC(C)C#CC#Cc1ccc(C(=O)*)cc1; NDecylGly = CCCCCCCCCCNCC(=O)O; X28 = C[C@H](N*)C(=O)c1ncccn1; Decanoyl = CCCCCCCCCC(=O)*; X17 = CCCCCCCCCNCCCC(=O)*; boroAla = C[C@H](N*)B(O)O; Octanoyl = CCCCCCCC(=O)*; Dab = NCC[C@H](N)C(=O)O; X24 = CCCCCCCCNCCC(=O)*; Dap = NC[C@H](N)C(=O)O

Tests used:
[1] = test system: methicillin resistant Staphylococcus aureus (MRSA) strain USA300 (NRS384)
Description: (§1) In vitro antimicrobial activity of each compound was determined by measuring minimal inhibitor concentrations (MICs) using the broth micro-dilution technique as approved by the Clinical and Laboratory Standards Institute (CLSI). Antibacterial activity was measure against two strains of bacteria: 1) methicillin resistant Staphylococcus aureus (MRSA) strain USA300 (NRS384) and 2) Escherichia coli strain MC4100 IMP-4213, which harbors an LptD mutation. Bacterial inocula were prepared by scraping cells into 1 mL of testing media (cation adjusted Mueller Hinton Broth supplemented with 0.002% v/v Tween-80) and diluting to a final OD600nm of 0.01.
(§2) Test compounds were prepared in DMSO at a concentration of 10 mg/ml. These compound stocks were diluted into testing media at a concentration of 64 μg/ml and 9 serial 1:2 dilutions were made in the same media, in 96-well U bottom microtiter dishes. Bacterial inocula were added to the two fold serial dilutions of test compounds to a final density of OD OD600nm of 0.0005 and incubated stationarily at 35° C. for 22 hours, after which the plates were examined visually.

[2] = test system: Escherichia coli strain MC4100 IMP-4213, which harbors an LptD mutation; settings: E. coli MC4100 IMP-4213; 35° C., 22 hours
Description: as §1, §2

[3] = MRSA USA300 (NRS384), 35° C., 22 hours

SMILES | MIC (μg/mL) S. aureus [1, 3] [µg/mL] | MIC (μg/mL) E. coli [2] [µg/mL] | MIC (μg/mL) S. aureus ([1]; USA300, 22 h) [µg/mL]
C[C@H](NC(=O)[C@H](CCCCN)NC(=O)[C@H](C)NC(=O)[C@@H](NC(=O)[C@H](CCN)NC(=O)c1cnc(-c2ccc(Cl)cc2)nc1)[C@@H](C)O)B1O[C@@H]2C[C@@H]3C[C@@H](C3(C)C)[C@]2(C)O1 [Compound 261] (X35-[Dab]TAK-{boroAla((+)-pinanediol)}) | 1.7 (≈ 2.02 µM) | 4 (≈ 4.76 µM) | –
CCCCCCCCCCNCCC(=O)N[C@@H](CCCCN)C(=O)N[C@H](C(=O)N[C@@H](C)C(=O)N[C@@H](CC(N)=O)C(=O)N[C@@H](C)B(O)O)[C@@H](C)O [Compound 221] ({Propanoyl(3-decylamino)}-KTAN-boroAla) | – | 64 (≈ 89.5 µM) | 4 (≈ 5.6 µM)
CCCCCCCC(=O)N[C@@H](CN)C(=O)N[C@H](C(=O)N[C@@H](C)C(=O)N[C@@H](CCCCN)C(=O)N[C@@H](C)B1O[C@@H]2C[C@@H]3C[C@@H](C3(C)C)[C@]2(C)O1)[C@@H](C)O [Compound 260] (Octanoyl-[Dap]TAK-{boroAla((+)-pinanediol)}) | 23 (≈ 31.3 µM) | 32 (≈ 43.5 µM) | –
C[C@H](NC(=O)[C@H](CCCCN)NC(=O)[C@H](C)NC(=O)[C@@H](NC(=O)[C@H](CCN)NS(=O)(=O)c1ccc(-c2ccc(Cl)cc2)nc1)[C@@H](C)O)B1O[C@@H]2C[C@@H]3C[C@@H](C3(C)C)[C@]2(C)O1 [Compound 234] (X21-[Dab]TAK-{boroAla((+)-pinanediol)}) | 16 (≈ 18.3 µM) | 32 (≈ 36.6 µM) | –
CCCCCCCCCCNCCS(=O)(=O)N[C@@H](CCCCN)C(=O)N[C@H](C(=O)N[C@@H](C)C(=O)N[C@@H](CCCCN)C(=O)N[C@@H](C)B(O)O)[C@@H](C)O [Compound 238] ({Ethanesulfonyl(2-NHDecyl)}-KTAK-boroAla) | – | 32 (≈ 41.8 µM) | 0.18 (≈ 0.235 µM)
C[C@H](NC(=O)[C@H](CCCCN)NC(=O)[C@H](C)NC(=O)[C@@H](NC(=O)C(NC(=O)c1ccc(-c2ccc(Cl)cc2)cc1)C1CNC1)[C@@H](C)O)B1O[C@@H]2C[C@@H]3C[C@@H](C3(C)C)[C@]2(C)O1 (stereo partly drawn) [Compound 281] | 4 (≈ 4.7 µM) | 8 (≈ 9.41 µM) | –
C[C@H](NC(=O)[C@H](CCCCN)NC(=O)[C@H](C)NC(=O)[C@@H](NC(=O)[C@H](CCCCN)NS(=O)(=O)c1ccc(-c2ccccc2)cc1)[C@@H](C)O)B1O[C@@H]2C[C@@H]3C[C@@H](C3(C)C)[C@]2(C)O1 [Compound 133] ({Benzenesulfonyl(4-Ph)}-KTAK-{boroAla((+)-pinanediol)}) | 8 (≈ 9.22 µM) | >64 | –
CCCCc1ccc(-c2ccc(S(=O)(=O)N[C@@H](CCN)C(=O)N[C@H](C(=O)N[C@@H](C)C(=O)N[C@@H](CCCCN)C(=O)N[C@@H](C)B(O)O)[C@@H](C)O)cn2)cc1 [Compound 233] (X18-[Dab]TAK-boroAla) | 2 (≈ 2.62 µM) | 8 (≈ 10.5 µM) | –
CCCCCCCCCCNCCC(=O)N[C@@H](CCCCN)C(=O)N[C@H](C(=O)N[C@@H](C)C(=O)N[C@@H](Cc1cnc[nH]1)C(=O)N[C@@H](C)B1O[C@@H]2C[C@@H]3C[C@@H](C3(C)C)[C@]2(C)O1)[C@@H](C)O [Compound 225] ({Propanoyl(3-decylamino)}-KTAH-{boroAla((+)-pinanediol)}) | 2 (≈ 2.29 µM) | 16 (≈ 18.3 µM) | –
CCCCCCCCCNCCCC(=O)N[C@@H](CCCCN)C(=O)N[C@H](C(=O)N[C@@H](C)C(=O)N[C@@H](CCCCN)C(=O)N[C@@H](C)B(O)O)[C@@H](C)O [Compound 228] (X17-KTAK-boroAla) | – | >64 | 2 (≈ 2.74 µM)
CCCCCCCCCCNCC(=O)N[C@@H](CCCCN)C(=O)N[C@H](C(=O)N[C@@H](C)C(=O)N[C@@H](CCCCN)C(=O)N[C@@H](C)B1O[C@@H]2C[C@@H]3C[C@@H](C3(C)C)[C@]2(C)O1)[C@@H](C)O [Compound 230] (H-[NDecylGly]KTAK-{boroAla((+)-pinanediol)}) | 0.36 (≈ 0.424 µM) | 32 (≈ 37.7 µM) | –
CCCCCCCCCCNCCC(=O)N[C@@H](CCCCN)C(=O)N[C@@H](C)C(=O)N[C@@H](CCCCN)C(=O)N[C@@H](C)B(O)O [Compound 269] | 0.35 (≈ 0.558 µM) | 11 (≈ 17.5 µM) | –
CCCCc1ccc(-c2ncc(C(=O)N[C@@H](CCN)C(=O)N[C@@H](CCCCN)C(=O)N[C@@H](C)C(=O)N[C@@H](CCCCN)C(=O)N[C@@H](C)B3O[C@@H]4C[C@@H]5C[C@@H](C5(C)C)[C@]4(C)O3)cn2)cc1 [Compound 271] (X30-[Dab]KAK-{boroAla((+)-pinanediol)}) | 0.25 (≈ 0.281 µM) | 0.13 (≈ 0.146 µM) | –
C[C@H](NC(=O)[C@H](CCCCN)NC(=O)[C@H](C)NC(=O)[C@@H](NC(=O)[C@H](CCN)NC(=O)c1ccc(C#CC#CC(C)(C)O)cc1)[C@@H](C)O)B1O[C@@H]2C[C@@H]3C[C@@H](C3(C)C)[C@]2(C)O1 [Compound 264] (X33-[Dab]TAK-{boroAla((+)-pinanediol)}) | 8 (≈ 9.59 µM) | 4 (≈ 4.8 µM) | –
CC(C)C#CC#Cc1ccc(C(=O)N[C@@H](CCN)C(=O)N[C@H](C(=O)N[C@@H](C)C(=O)N[C@@H](CCCCN)C(=O)N[C@@H](C)B2O[C@@H]3C[C@@H]4C[C@@H](C4(C)C)[C@]3(C)O2)[C@@H](C)O)cc1 [Compound 263] (X36-[Dab]TAK-{boroAla((+)-pinanediol)}) | 0.71 (≈ 0.868 µM) | 0.25 (≈ 0.306 µM) | –
CCCCCCCCCCNCCC(=O)N[C@@H](CCCCN)C(=O)N[C@@H](C)C(=O)N[C@@H](CCCCN)C(=O)N[C@@H](C)B1O[C@@H]2C[C@@H]3C[C@@H](C3(C)C)[C@]2(C)O1 [Compound 268] | – | 8 (≈ 10.5 µM) | 0.5 (≈ 0.656 µM)
CCCCCCCCCC(=O)NCC(=O)N[C@H](C(=O)N[C@@H](C)C(=O)N[C@@H](CCCCN)C(=O)N[C@@H](C)B1O[C@@H]2C[C@@H]3C[C@@H](C3(C)C)[C@]2(C)O1)[C@@H](C)O [Compound 258] (Decanoyl-GTAK-{boroAla((+)-pinanediol)}) | 8 (≈ 10.9 µM) | >64 | –
CCCCc1ccc(-c2ccc(CN(CCCN)C(=O)N[C@H](C(=O)N[C@@H](C)C(=O)N[C@@H](CCCCN)C(=O)N[C@@H](C)B3OC4C[C@@H]5C[C@@H](C5(C)C)[C@]4(C)O3)[C@@H](C)O)cc2)cc1 (stereo partly drawn) [Compound 132] | 5.7 (≈ 6.74 µM) | 32 (≈ 37.8 µM) | –
CCCCCCCCCCNCCN[C@@H](CO)C(=O)N[C@H](C(=O)N[C@@H](C)C(=O)N[C@@H](CCCCN)C(=O)N[C@@H](C)B1O[C@@H]2C[C@@H]3C[C@@H](C3(C)C)[C@]2(C)O1)[C@@H](C)O [Compound 242] | 4 (≈ 5.04 µM) | 64 (≈ 80.6 µM) | –
CCCCCCCCCCNCCC(=O)N[C@@H](CCCCN)C(=O)N[C@H](C(=O)N[C@@H](C)C(=O)N[C@@H](CCCCN)C(=O)N[C@@H](C)C(=O)C(=O)OC)[C@@H](C)O [Compound 248] ({Propanoyl(3-decylamino)}-KTAK-AlaCOCOOMe) | – | >64 | 1 (≈ 1.3 µM)
CCCCCCCCCCNCCC(=O)N[C@@H](CCCCN)C(=O)N[C@H](C(=O)N[C@@H](C)C(=O)N[C@@H](CN)C(=O)N[C@@H](C)C(=O)C(=O)OC)[C@@H](C)O [Compound 256] ({Propanoyl(3-decylamino)}-KTA[Dap]-AlaCOCOOMe) | – | >64 | 10 (≈ 13.7 µM)
CCCCCCCCNCCC(=O)N[C@@H](CCCCN)C(=O)N[C@H](C(=O)N[C@@H](C)C(=O)N[C@@H](CCCCN)C(=O)N[C@@H](C)B1O[C@@H]2C[C@@H]3C[C@@H](C3(C)C)[C@]2(C)O1)[C@@H](C)O [Compound 226] (X24-KTAK-{boroAla((+)-pinanediol)}) | 6.3 (≈ 7.55 µM) | >64 | –
CCCCCCN1CCNC(C(=O)N[C@@H](CCCCN)C(=O)N[C@H](C(=O)N[C@@H](C)C(=O)N[C@@H](CCCCN)C(=O)N[C@@H](C)B2O[C@@H]3C[C@@H]4C[C@@H](C4(C)C)[C@]3(C)O2)[C@@H](C)O)C1 (stereo partly drawn) [Compound 280] (H-[X32]KTAK-{boroAla((+)-pinanediol)}) | 64 (≈ 75.5 µM) | >64 | –
C[C@H](NC(=O)[C@@H](NC(=O)[C@H](CN)NC(=O)c1ccc(-c2ccc(Cl)cc2)cc1)[C@@H](C)O)C(=O)N[C@@H](CCCCN)C(=O)N[C@@H](C)C(=O)c1ncccn1 [Compound 267] ({Benzoyl(4-(4-Cl-Ph))}-[Dap]TAK-X28) | 11 (≈ 14.6 µM) | 32 (≈ 42.5 µM) | –
